Publication doi:10.1101/2025.06.17.660082v1 (bioRxiv, 2025)
pEC50: −log10 of the molar value.

How the values were obtained:
white hMADS cells = test: Lipolysis assay; type: cell-based, human; conditions: for FFA release after pretreatment with adenylyl cyclase inhibitor SQ22536: white hMADS
hMADS cells = test: mRNA expression by RT-qPCR in hMADS; type: cell-based, human; conditions: in the presence of 10 nM insulin, 24 h
[1] = healthy individuals, degradation by dipeptidyl peptidase 4; cited from earlier work
GIPR = molecular target: T1, GIPR (Homo sapiens, UniProt P48546); test: Schild analysis of FFA release in hMADS with GIPR antagonist; type: cell-based
T1 sequence (P48546 22-466): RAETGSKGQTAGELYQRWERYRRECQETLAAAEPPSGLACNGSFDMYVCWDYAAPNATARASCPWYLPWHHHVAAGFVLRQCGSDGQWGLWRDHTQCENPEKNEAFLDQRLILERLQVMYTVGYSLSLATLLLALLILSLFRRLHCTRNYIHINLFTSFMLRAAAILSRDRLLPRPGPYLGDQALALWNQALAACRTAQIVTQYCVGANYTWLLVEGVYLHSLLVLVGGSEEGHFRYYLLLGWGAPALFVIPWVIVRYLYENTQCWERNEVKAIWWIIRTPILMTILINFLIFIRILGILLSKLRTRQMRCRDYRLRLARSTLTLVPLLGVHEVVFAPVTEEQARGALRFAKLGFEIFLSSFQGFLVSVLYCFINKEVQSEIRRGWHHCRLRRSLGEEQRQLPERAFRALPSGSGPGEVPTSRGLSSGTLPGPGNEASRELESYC

[2] = molecular target: human insulin receptor/ CD220 (28-944) protein (Homo sapiens, UniProt P06213); test: Surface plasmon resonance, immobilised biotinylated peptide, INSR injected; type: binding; conditions: biotinylated peptide on Sensor Chip SA
Sequence of human insulin receptor/ CD220 (28-944) protein (P06213 28-944 isoform P06213-2): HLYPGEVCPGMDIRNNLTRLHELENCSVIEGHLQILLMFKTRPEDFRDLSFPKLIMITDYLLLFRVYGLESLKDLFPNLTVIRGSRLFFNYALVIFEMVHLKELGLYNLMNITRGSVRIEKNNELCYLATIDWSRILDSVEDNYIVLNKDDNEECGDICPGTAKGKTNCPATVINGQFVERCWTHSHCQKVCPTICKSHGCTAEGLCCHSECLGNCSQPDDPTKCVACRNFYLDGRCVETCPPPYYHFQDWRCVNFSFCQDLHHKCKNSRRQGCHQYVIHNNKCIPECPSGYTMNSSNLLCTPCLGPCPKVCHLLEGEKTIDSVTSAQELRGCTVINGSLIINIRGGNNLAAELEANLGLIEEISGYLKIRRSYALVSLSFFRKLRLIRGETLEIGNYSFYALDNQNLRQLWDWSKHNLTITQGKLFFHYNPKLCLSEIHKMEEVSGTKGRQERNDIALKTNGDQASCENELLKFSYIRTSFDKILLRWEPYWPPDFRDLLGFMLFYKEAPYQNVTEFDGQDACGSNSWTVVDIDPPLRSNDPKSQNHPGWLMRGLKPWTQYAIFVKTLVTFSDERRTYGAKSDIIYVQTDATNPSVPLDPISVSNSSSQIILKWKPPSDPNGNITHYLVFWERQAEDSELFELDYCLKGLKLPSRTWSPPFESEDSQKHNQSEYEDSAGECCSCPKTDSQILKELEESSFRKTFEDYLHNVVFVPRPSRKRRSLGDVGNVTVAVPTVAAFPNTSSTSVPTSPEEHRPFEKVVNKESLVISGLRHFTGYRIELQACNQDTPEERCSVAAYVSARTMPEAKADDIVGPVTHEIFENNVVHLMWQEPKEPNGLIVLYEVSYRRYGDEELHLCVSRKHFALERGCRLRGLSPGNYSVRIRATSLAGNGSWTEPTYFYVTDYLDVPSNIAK

brain natriuretic peptide [BNP]
FFA release after pretreatment with adenylyl cyclase inhibitor SQ22536 (white hMADS cells): remains unaffected

COc1cc([C@@H]2c3cc4c(cc3[C@H](O)[C@H]3COC(=O)[C@@H]23)OCO4)cc(OC)c1OC [PPP, Picropodophyllin]
expression of FASN (hMADS cells): significantly lower

CC[C@H](C)[C@H](NC(=O)[C@H](CO)NC(=O)[C@H](Cc1ccc(O)cc1)NC(=O)[C@H](CC(=O)O)NC(=O)[C@H](CO)NC(=O)[C@@H](NC(=O)[C@H](Cc1ccccc1)NC(=O)[C@@H](NC(=O)CNC(=O)[C@H](CCC(=O)O)NC(=O)[C@H](C)NC(=O)[C@@H](N)Cc1ccc(O)cc1)[C@@H](C)O)[C@@H](C)CC)C(=O)N[C@@H](C)C(=O)N[C@@H](CCSC)C(=O)N[C@@H](CC(=O)O)C(=O)N[C@@H](CCCCN)C(=O)N[C@H](C(=O)N[C@@H](Cc1c[nH]cn1)C(=O)N[C@@H](CCC(N)=O)C(=O)N[C@@H](CCC(N)=O)C(=O)N[C@@H](CC(=O)O)C(=O)N[C@@H](Cc1ccccc1)C(=O)N[C@H](C(=O)N[C@@H](CC(N)=O)C(=O)N[C@@H](Cc1c[nH]c2ccccc12)C(=O)N[C@@H](CC(C)C)C(=O)N[C@@H](CC(C)C)C(=O)N[C@@H](C)C(=O)N[C@@H](CCC(N)=O)C(=O)N[C@@H](CCCCN)C(=O)NCC(=O)N[C@@H](CCCCN)C(=O)N[C@@H](CCCCN)C(=O)N[C@@H](CC(N)=O)C(=O)N[C@@H](CC(=O)O)C(=O)N[C@@H](Cc1c[nH]c2ccccc12)C(=O)N[C@@H](CCCCN)C(=O)N[C@@H](Cc1c[nH]cn1)C(=O)N[C@@H](CC(N)=O)C(=O)N[C@H](C(=O)N[C@H](C(=O)N[C@@H](CCC(N)=O)C(=O)O)[C@@H](C)O)[C@@H](C)CC)C(C)C)[C@@H](C)CC [hGIP]
FFA release in hMADS treated with GIPR siRNA vs siNC (white hMADS cells; GIPR knockdown approximately 40%): significantly reduced
pEC50 (white hMADS cells; read-out: EC50, FFA release read-out, hMADS cells): 8.96
half-life [1]: approximately 7 minutes

CCCCCCCCCCCCCCCC(=O)N[C@@H](CCC(=O)NCCCC[C@H](NC(=O)[C@H](Cc1ccc(O)cc1)NC(=O)[C@H](CC(=O)O)NC(=O)[C@H](CO)NC(=O)[C@@H](NC(=O)[C@H](Cc1ccccc1)NC(=O)[C@@H](NC(C)=O)[C@@H](C)O)[C@@H](C)CC)C(=O)N[C@H](C(=O)N[C@@H](C)C(=O)N[C@@H](CC(C)C)C(=O)N[C@@H](CC(=O)O)C(=O)N[C@@H](CCCCN)C(=O)N[C@H](C(=O)N[C@@H](CCCNC(=N)N)C(=O)N[C@@H](CCC(N)=O)C(=O)N[C@@H](CCC(N)=O)C(=O)N[C@@H](CCC(=O)O)C(=O)N[C@@H](Cc1ccccc1)C(=O)N[C@H](C(=O)N[C@@H](CC(N)=O)C(=O)N[C@@H](Cc1c[nH]c2ccccc12)C(=O)N[C@@H](CC(C)C)C(=O)N[C@@H](CC(C)C)C(=O)N[C@@H](C)C(=O)N[C@@H](CCC(N)=O)C(=O)N[C@@H](CCCCN)C(=O)NCC(N)=O)C(C)C)[C@@H](C)CC)[C@@H](C)CC)C(=O)O [GIPR antagonist]
effect on lipolysis induced by 1 µM isoprenaline (GIPR): remains unchanged

Ac-PKMVPQFNTELKIFPEVNIK-NH2 [SP34]
binding of insulin receptor to immobilised peptide [2]: does not exhibit binding

CC(C)NCC(O)c1ccc(O)c(O)c1 (centres unmarked) [isoprenaline]
FFA release after pretreatment with adenylyl cyclase inhibitor SQ22536 (white hMADS cells): inhibited
